# Measured values as given in PubChem BioAssay AID1322 (NMMLSC, 2008).
# Calls of active or inactive are those of the source. No rule for the calls is given here.
# Target: Bcl-2-like protein 1 (Homo sapiens) (UniProt Q07817)
# Test: Bim-Bcl-XL interaction inhibitors, potency, dose response, biochemical, multiplexed, bead flow cytometry, human Bcl-XL (AID 1322); as to inhibition: test concentration not given here
# Conditions: Bead-based flow cytometry, Bim peptide-Bcl-XL binding, MCF
# Sequence of Bcl-2-like protein 1 (Homo sapiens) (Q07817 whole entry, looked up): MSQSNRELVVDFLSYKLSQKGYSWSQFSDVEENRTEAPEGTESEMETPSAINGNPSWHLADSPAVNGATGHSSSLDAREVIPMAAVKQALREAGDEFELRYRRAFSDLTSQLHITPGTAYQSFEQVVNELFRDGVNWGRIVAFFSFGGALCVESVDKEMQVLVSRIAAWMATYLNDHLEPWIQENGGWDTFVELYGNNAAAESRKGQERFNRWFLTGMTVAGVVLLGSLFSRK
row,SMILES,outcome
1,O=C(CNC(=O)c1ccc(S(=O)(=O)N2CCCC2)cc1)N/N=C/c1ccc(Cl)cc1Cl,inactive
2,CC1Nc2ccccc2C(=O)N1NS(=O)(=O)c1ccccc1 (stereo not given),inactive
3,C/C(=N/NC(=O)c1cc(O)c(O)c(O)c1)c1ccc([N+](=O)[O-])cc1,inactive
4,CCOc1ccccc1/C=N/NC(=O)CNC(=O)COc1ccccc1,inactive
5,CC1C=CCC2C(=O)N(c3ccc(OC(=O)c4cccs4)cc3)C(=O)C12 (stereo not given),inactive
6,COc1ccc(/C=C/C(=O)c2cc(Br)ccc(=O)c2O)cc1,inactive
7,COc1ccc(CN(CC(=O)NC2CCCC2)C(=O)CCC(=O)Nc2cc(C)on2)cc1,inactive
8,O=C(N/N=C/c1cccc([N+](=O)[O-])c1)c1cccs1,inactive
9,CN(C)c1cccc(NC(=O)C2(C)CC2(Cl)Cl)c1 (stereo not given),inactive
10,Cc1ccc(NC(=O)c2cc(S(=O)(=O)NCCC3=CCCCC3)ccc2F)cc1F,inactive
11,COc1ccc(C2CN(C)CC2C(=O)c2ccc(F)cc2)cc1Cl (stereo not given),inactive
12,O=C(c1cccc(Br)c1)N1CCN(c2cnn(-c3ccccc3)c(=O)c2Cl)CC1,inactive
13,O=C1N/C(=C/c2cccn2-c2ccccc2)C(=O)N1Cc1ccc(F)cc1,inactive
14,CCSc1ncnc2sc(C)c(C)c12,inactive
15,OCCC1CN(Cc2ccc3ncccc3c2)CCN1Cc1ccccc1 (stereo not given),inactive
16,CC1CCN(C2(O)C(=O)Nc3ccc(Br)cc32)CC1 (stereo not given),inactive
17,COc1ccccc1N(C)S(=O)(=O)c1ccc(C(=O)OCC(N)=O)cc1,inactive
18,CN(CCc1ccccn1)C(=O)CCC1CCCN(C(=O)NC2CCCCC2)C1 (stereo not given),inactive
19,Cc1ccc(-c2cc(C(=O)Nc3cc(C(=O)O)ccc3C)c3ccccc3n2)cc1,inactive
20,O=C1NC(=O)C(=Cc2ccc(-c3cc(Cl)ccc3[N+](=O)[O-])o2)C(=O)N1,inactive
21,CCOC(=O)c1ccc(N=c2ssnc2Cl)cc1,inactive
22,N/C(=N\OC(=O)CCC1CCCC1)c1ccncc1,inactive

# Same assay, conditions: Bead-based flow cytometry, Bim peptide-Bcl-XL binding, MCF
row,SMILES,inhibition
1,COc1ccc(CC(=O)Nc2ccc3nc(C)sc3c2)cc1OC,inactive
2,CCN1C(=O)/C(=C\C=C2/C=CC=CN2CC)SC1=S,inactive
3,Cc1cc(/C=C(/C#N)C(=O)Nc2ccc(Cl)cc2)c(C)n1-c1cccnc1,inactive
4,O=C(O)c1ccc(NS(=O)(=O)c2ccc3c(c2)C(=O)c2ccccc2C3=O)cc1,inactive
5,COc1ccc(S(=O)(=O)NCCSc2ccccc2)cc1OC,inactive
6,COc1ccc(N2C(=O)/C(=C/c3cccs3)NC2=S)cc1,inactive
7,COc1cc(N=c2ssnc2Cl)cc(OC)c1OC,inactive
8,c1csc(C2=Nn3c(nnc3-c3ccncc3)SC2)c1,inactive
9,CN(C)c1ccc(C(=O)/C=C/c2ccc(Br)cc2)cc1,inactive
10,CCC(=O)OCCNc1cc(Sc2nc3ccccc3s2)c2nonc2c1[N+](=O)[O-],inactive
11,CC(CCc1ccccc1)NC(=O)C1CCN(S(=O)(=O)N2CCCCC2)CC1 (stereo not given),inactive
12,c1ccc(-c2nc(N3CCCCC3)nc3ccccc23)cc1,inactive
13,O=C(Nc1cccc(Cl)c1)Nc1ccc(Cl)cn1,inactive
14,O=C(Nc1cccc(C(F)(F)F)c1)c1ccc2nc(-c3ccco3)c(-c3ccco3)nc2c1,inactive
15,Nc1ccc(N2CCN(CCCCN3C(=O)C4CCCN4C3=O)CC2)cc1 (stereo not given),inactive
16,Cc1cc(C)c[n+](-c2nc3ccccc3nc2C(=C=[N-])C#N)c1,inactive
17,N/C(Cc1ccc(Cl)c(Cl)c1)=N\OC(=O)c1cccs1,inactive
18,Cc1ccc(C)n1-c1ccc(N2CCOCC2)cc1,inactive
19,Cc1ccc(-c2cc(-c3ccc(C)o3)nc(N)c2C#N)cc1,inactive
20,Cc1ccc(S(=O)(=O)NC(=O)COc2ccccc2C)cc1,inactive
21,Cn1c(=O)[nH]c(=O)c2c1nc(N1CCOCC1)n2CCSc1nc2ccccc2[nH]1,inactive

row,SMILES,inhibition
1,CCN1CCN(c2ccc(NC(=O)c3ccc4c(c3)[nH]c(=O)n4Cc3ccc(OC)cc3)cc2)CC1,inactive
2,Cc1cccc(N2CCN(C(=S)Nc3ccc4nc(N5CCN(C)CC5)cc(C)c4c3)CC2)c1C,inactive
3,COc1ccccc1NC1=C(NC(C)=O)C(=O)c2ccccc2C1=O,inactive
4,O=C(COC(=O)CCCN=C1NS(=O)(=O)c2ccccc21)NC(=O)NC1CCCC1,inactive
5,CCNCc1cc(Br)c(OCC(=O)Nc2ccccc2)c(OC)c1,inactive
6,CC(=O)c1ccc2c(c1)C1C=CCC1C(c1ccncc1)N2 (stereo not given),inactive
7,Cc1ccc(-c2nc(N3CCOCC3)s[n+]2-c2ccccc2)cc1,inactive
8,Cc1ccc(-c2cc(C(=O)OCC(=O)N(C)C3CCS(=O)(=O)C3)c3ccccc3n2)o1 (stereo not given),inactive
9,COc1ccc(C(=O)Nc2ccc(NC(=O)c3cccs3)cc2)cc1Cl,inactive
10,COc1cc(N=c2ssnc2Cl)cc(OC)c1,inactive
11,CN1CCN(c2ccc(N)cc2)CC1,inactive
12,CNc1ccc(Br)cc(C(=O)/C=C/c2ccc(OC)cc2)c1=O,inactive
13,CCOc1ccc(NCc2ccccc2OCc2cccc(F)c2)cc1,inactive
14,CCOc1ccc(C2=Nn3c(nnc3-c3ccco3)SC2)cc1,inactive
15,COc1ccc2nc(-c3ccco3)c(-c3ccco3)nc2c1,inactive
16,CCCc1nnc2n1N=C(c1ccc(-c3cc(Cl)ccc3Cl)o1)CS2,inactive
17,c1ccc(C2=Nc3cccc4cccc(c34)N2)cc1,inactive
18,COc1ccc(N=C2NC(=O)/C(=C\C=C\c3ccco3)S2)cc1,inactive
19,COc1ccc(C(=S)N2CCCCCC2)cc1,inactive
20,S=C(Nc1ccccc1)N1CCn2cccc2C1c1cccnc1 (stereo not given),inactive
21,Cc1ccc(C)c(N2CCN(C(=S)Nc3ccc4nc(N5CCN(C)CC5)cc(C)c4c3)CC2)c1,inactive

row,SMILES,inhibition
1,Cc1cc2nc(/C(C#N)=C/c3ccncc3)[nH]c2cc1C,inactive
2,O=C(/C=C/c1ccc(-c2ccccc2[N+](=O)[O-])o1)c1ccc(F)cc1,inactive
3,CCOc1cc(S(=O)(=O)Nc2ccccn2)ccc1F,inactive
4,CNc1ccc(Br)cc(C(=O)/C=C/c2ccc(OC)cc2OC)c1=O,inactive
5,Cc1csc(Nc2ccccc2C(F)(F)F)n1,inactive
6,CC(C)(C)NC(=O)COc1ccc(CNc2ccc3[nH]c(=O)[nH]c3c2)cc1,inactive
7,COc1ccc(NC(=O)Cc2c(F)cccc2Cl)c(OC)c1,inactive
8,O=C(c1cc2ccccc2oc1=O)N(c1ccccc1)C1C=CS(=O)(=O)C1 (stereo not given),inactive
9,CCN1/C(=C/c2ccc3cc(C)cc(C)c3[n+]2CC)Sc2cc(C)ccc21,inactive
10,CN(C)S(=O)(=O)N(CC(=O)Nc1ccccc1C(F)(F)F)c1ccccc1,inactive
11,O=C(O)c1ccc(NC2=C/C(=N/S(=O)(=O)c3ccccc3)c3ccccc3C2=O)cc1,inactive
12,O=C(OCC(=O)c1ccc[nH]1)c1ccccc1,inactive
13,CCOc1cc(C2Nc3cccc4cccc(c34)N2)ccc1O,inactive
14,CCOc1ccccc1NC(=O)CSc1ccc2nnc(-c3cccnc3)n2n1,inactive
15,CCN1CCN(c2cc(C)c3cc(NC(=S)N4CCN(c5ccc(F)cc5)CC4)ccc3n2)CC1,inactive
16,CCNC(=S)Nc1cc(OCC)c(NC(=O)c2cccs2)cc1OCC,inactive
17,CCCCCCn1nc(C(=O)Nc2nc3c(s2)CCCC3)c2ccccc2c1=O,inactive
18,O=C(Nc1ccc(N2CCOCC2)cc1)Nc1ccc2nc(-c3ccco3)c(-c3ccco3)nc2c1,inactive
19,Cc1ccc(C(=O)C(C(=O)/C=C/c2ccccc2)=C2SCCCS2)cc1,inactive
20,O=C(OCc1nc2ccccc2[nH]1)C12CC3CC(CC(C3)C1)C2,inactive
21,COc1ccccc1NC(=O)CSc1nnc(-c2ccco2)n1Cc1ccco1,inactive

row,SMILES,inhibition
1,CCOc1cc(/C=C2/N=C(C)C(C(=O)OC)=C2O)ccc1O,inactive
2,CCN(CC)c1ccc(NC(=O)c2ccccc2Br)cc1S(=O)(=O)Nc1ccccc1OC,inactive
3,Fc1ccc(C2=Nn3c(Cc4ccccc4F)nnc3SC2)cc1,inactive
4,Cc1cc(-c2csc(N)n2)c(C)n1C,inactive
5,COc1ccc(CCNC(=O)c2cc(-c3ccccn3)nc3c(Cl)cccc23)cc1OC,inactive
6,Cc1ccc(C)c(/C=C/C(=O)c2ccccc(=O)c2O)c1,inactive
7,COC(=O)C1C2c3ccccc3OC1(C)N=c1s/c(=C/c3cnn(C)c3C)c(=O)n12 (stereo not given),inactive
8,O=C(COCC(=O)NCc1ccccc1)NCc1ccccc1,inactive
9,Cc1cc(NC(=O)CCCC(=O)NCc2ccccc2)no1,inactive
10,Cc1cc(NC(=O)CCCC(=O)N(CC(=O)NC2CCCCC2)c2ccccc2)no1,inactive
11,CC(=O)NC1=C(NC2CCS(=O)(=O)C2)C(=O)c2ccccc2C1=O (stereo not given),inactive
12,COc1ccc(NC(=O)c2ccc3c(c2)NC(=O)CS3)cc1S(=O)(=O)Nc1ccc(Br)cc1,inactive
13,CNC(=O)c1c(N)sc2c1CCCCC2,inactive
14,CCC(=O)OCCNc1cc(Sc2nc3ccccc3[nH]2)c2nonc2c1[N+](=O)[O-],inactive
15,Cn1c(=O)c(C(=O)COC(=O)c2cc(-c3ccco3)nc3ccccc23)c(N)n(CC2CC2)c1=O,inactive
16,CC(C)C(=O)N1CCN(c2ccc([N+](=O)[O-])cc2Cl)CC1,inactive
17,O=C(NCCO)c1ccc2nc(-c3ccco3)c(-c3ccco3)nc2c1,inactive
18,O=C(Nc1ccccn1)c1cc2ccccc2o1,inactive
19,COc1ccc(Cl)cc1-n1c(C)cc(C=O)c1C,inactive
20,COc1cc(/C=N/NC(=O)c2ccc([N+](=O)[O-])cc2Cl)cc(Br)c1O,inactive
